# Measurements published in ChEMBL document CHEMBL4312002, “Impact of hydroxy moieties at the benzo[7]annulene ring system of GluN2B ligands: Design, synthesis and biological evaluation” (Bioorg Med Chem, 2019).
# Assays:
# [1] = Displacement of [3H]ifenprodil from GluN1A/GluN2B (unknown origin) expressed in mouse L(tk-) cell membranes after 120 mins by solid scintillation counting method; set-up: species or system Homo sapiens
# [2] = Cytoprotection against glutamate/glycine-induced cytotoxicity against mouse LTK cells expressing GluN1a/GluN2B preincubated 30 mins followed by glutamate/glycine addition and measured after 6 hrs by LDH assay; type: functional, cell-based
# Sus scrofa = species: Sus scrofa; test: Displacement of [3H]-(+)-MK-801 from PCP binding site of NMDA receptor in pig brain cortex membranes at 1 uM after 120 mins by solid scintillation counting method relative to control; type: cell membranes
# [3] = Drug metabolism in C57BL/6 mouse liver microsomes assessed as hydroxylation at aliphatic ring at 25 uM incubated for 90 mins in presence of phase 1 cofactor NADPH by LC-qTOF/MS analysis; type: ADME, Microsome; settings: 1.5 h
# [4] = biological target: Sigma non-opioid intracellular receptor 1 (Cavia porcellus, UniProt Q60492); test: Displacement of [3H]-(+)-pentazocine from sigma1 receptor in guinea pig brain cortex membranes incubated for 120 mins by solid scintillation counting method; type: cell membranes
# [5] = Retention time of compound in C57BL/6 mouse liver microsomes at 25 uM by LC-qTOF/MS analysis; type: ADME, Microsome
# [6] = Drug metabolism in C57BL/6 mouse liver microsomes assessed as glucuronide metabolite formation at 25 uM incubated for 90 mins in presence of phase 1 and 2 cofactors NADPH and UDPGA by LC-qTOF/MS analysis; type: ADME, Microsome; settings: 1.5 h
# [7] = Drug metabolism in C57BL/6 mouse liver microsomes assessed as hydroxylation at aromatic ring at 25 uM incubated for 90 mins in presence of phase 1 cofactor NADPH by LC-qTOF/MS analysis; type: ADME, Microsome; settings: 1.5 h
# [8] = Drug metabolism in C57BL/6 mouse liver microsomes assessed as hydroxylation at aliphatic and aromatic ring at 25 uM incubated for 90 mins in presence of phase 1 cofactor NADPH by LC-qTOF/MS analysis; type: ADME, Microsome; settings: 1.5 h
# [9] = biological target: T1, Sigma intracellular receptor 2 (Rattus norvegicus, UniProt Q5U3Y7); test: Displacement of [3H]di-o-tolylguanidine from sigma2 receptor in rat liver membranes measured after 120 mins by solid scintillation counting method; type: cell membranes
# T1 sequence (Q5U3Y7 whole entry): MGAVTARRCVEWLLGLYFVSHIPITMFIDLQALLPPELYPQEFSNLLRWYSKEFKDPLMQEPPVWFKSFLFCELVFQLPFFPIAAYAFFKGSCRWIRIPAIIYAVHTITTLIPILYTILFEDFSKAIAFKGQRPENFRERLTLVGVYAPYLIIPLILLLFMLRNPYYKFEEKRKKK
# [10] = Drug metabolism in C57BL/6 mouse liver microsomes assessed as (2S,3S,4S,5R)-3,4,5-trihydroxy-6-(7-(methyl(3-phenylpropyl)amino)-6,7,8,9-tetrahydro-5H-benzo[7]annulen-5-yloxy)tetrahydro-2H-pyran-2-carboxylic acid formation at 25 uM incubated for 90 mins in presence of phase 1 and 2 cofactors NADPH and UDPGA by LC-qTOF/MS analysis; type: ADME, Microsome; settings: 1.5 h
# in vitro = settings: C57BL/6, mouse, liver microsomes
# Description: Metabolic stability in C57BL/6 mouse liver microsomes assessed as parent compound remaining at 25 uM incubated for 90 mins in presence of NADPH by LC-qTOF/MS analysis
# [11] = Cytoprotection against glutamate/glycine-induced cytotoxicity against mouse LTK cells expressing GluN1a/GluN2B assessed as inhibition of cell growth measured after 12 hrs by LDH assay; type: functional, cell-based
# [12] = Cytoprotection against glutamate/glycine-induced cytotoxicity against mouse LTK cells expressing GluN1a/GluN2B at 10 uM measured after 30 mins by LDH assay relative to control; type: functional
# [13] = biological target: Sigma non-opioid intracellular receptor 1 (Cavia porcellus) (UniProt Q60492); test: Displacement of [3H]-(+)-pentazocine from sigma1 receptor in guinea pig brain cortex membranes at 1 uM incubated for 120 mins by solid scintillation counting method relative to control; type: cell membranes
# [14] = Retention time of (2S,3S,4S,5R)-3,4,5-trihydroxy-6-(7-(methyl(3-phenylpropyl)amino)-6,7,8,9-tetrahydro-5H-benzo[7]annulen-5-yloxy)tetrahydro-2H-pyran-2-carboxylic acid metabolite in C57BL/6 mouse liver microsomes at 25 uM by LC-qTOF/MS analysis; type: ADME, Microsome
# Sigma non-opioid intracellular receptor 1, sequence (Q60492 whole entry): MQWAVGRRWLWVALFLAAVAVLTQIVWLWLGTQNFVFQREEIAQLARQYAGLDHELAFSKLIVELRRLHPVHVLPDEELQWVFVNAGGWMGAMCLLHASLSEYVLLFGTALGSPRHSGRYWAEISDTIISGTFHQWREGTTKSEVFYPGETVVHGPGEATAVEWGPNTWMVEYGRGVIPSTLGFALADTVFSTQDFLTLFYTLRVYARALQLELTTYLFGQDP
# Sigma non-opioid intracellular receptor 1 (Cavia porcellus), sequence (Q60492 whole entry): as above
Compound,Ki [1] [nM],IC50 [2] [nM],inhibition (Sus scrofa) [%],Ki [4] [nM],Ki [9] [nM],Activity [12] [%],also measured
Oc1ccc2c(c1)CCC(NCCCc1ccccc1)CC2 (stereo unspecified),28,> 10000,,,,,
CN(CCCc1ccccc1)C1CCc2ccccc2C(O)C1 (mixture of isomers),49,580,0,39,35,,"Drug metabolism [3]: Metabolite_Detected; Retention_time [5]: 5.1 min; Drug metabolism [6]: Metabolite_Detected; Drug metabolism [7]: Metabolite_Detected; Drug metabolism [8]: Metabolite_Detected; Drug metabolism [10]: Metabolite_Detected; remaining at 1.5 h, 25 µM (in vitro): 17%"
COc1ccc2c(c1)CC[C@@H](NCCCc1ccccc1)C[C@H]2O (racemic),16,,,,,,IC50 [11]: 12 nM
OC(CN1CCC(Cc2ccc(F)cc2)CC1)c1ccc(Cl)cc1 (stereo unspecified) [ELIPRODIL],13,,,,,,
Oc1ccc2c(c1)CCC(NCCCCc1ccccc1)CC2 (stereo unspecified),21,3000,,,,,
c1ccc(CCCNC2CCc3ccccc3CC2)cc1,16,,,,,29,
OC1Cc2ccccc2CCC1NCCCCc1ccccc1 (mixture of isomers),270,,0,430,100,0,
OC1c2ccccc2CCC(NCCCc2ccccc2)C1O (mixture of isomers),2000,,14,,630,41,inhibition [13]: 17%
CN(CCCCc1ccccc1)C1CCc2ccccc2C(O)C1 (mixture of isomers),64,,0,33,66,10,
COc1ccc2c(c1)CCC(NCCCc1ccccc1)CC2 (stereo unspecified),10,,,,,,IC50 [11]: 29 nM
OC1CC(NCCCc2ccccc2)CCc2ccccc21 (mixture of isomers),77,1600,0,160,28,,
CN(CCCc1ccccc1)C1CCc2ccccc2C(O[C@@H]2O[C@H](C(=O)O)[C@@H](O)[C@H](O)[C@H]2O)C1 (stereo partly specified),,,,,,,Retention_time [14]: 4.8 min
OC1CC(NCCCCc2ccccc2)CCc2ccccc21 (mixture of isomers),,,0,140,100,12,
C[C@@H](CN1CCC(Cc2ccccc2)CC1)[C@@H](O)c1ccc(O)cc1,170,13,,,,,
CC(C(O)c1ccc(O)cc1)N1CCC(Cc2ccccc2)CC1 (stereo unspecified) [IFENPRODIL],10,,,,,,
OC1Cc2ccccc2CCC1NCCCc1ccccc1 (mixture of isomers),380,,0,1300,100,22,
